# Where two headings read alike, the source gives them in different places.
# Columns and labels:
# Assay in all cases: Cysteine liganding, probe competition
# Format in all cases: binding
# [1] = biological target: T1, UniProt Q9C035 (Homo sapiens, UniProt Q9C035)
# T1 construct: 200 μL of lysate containing 5 mg/ml proteome was treated with 2 μL of 100× compound stock; endogenous in cells
# Description: (§1) The following 96-well sample prep protocol was used for sample preparation.
# [2] = biological target: T2, UniProt Q8WV44 (Homo sapiens, UniProt Q8WV44)
# T2 construct: 200 μL of lysate containing 5 mg/ml proteome was treated with 2 μL of 100× compound stock; endogenous in cells
# T2 sequence (Q8WV44 1-630): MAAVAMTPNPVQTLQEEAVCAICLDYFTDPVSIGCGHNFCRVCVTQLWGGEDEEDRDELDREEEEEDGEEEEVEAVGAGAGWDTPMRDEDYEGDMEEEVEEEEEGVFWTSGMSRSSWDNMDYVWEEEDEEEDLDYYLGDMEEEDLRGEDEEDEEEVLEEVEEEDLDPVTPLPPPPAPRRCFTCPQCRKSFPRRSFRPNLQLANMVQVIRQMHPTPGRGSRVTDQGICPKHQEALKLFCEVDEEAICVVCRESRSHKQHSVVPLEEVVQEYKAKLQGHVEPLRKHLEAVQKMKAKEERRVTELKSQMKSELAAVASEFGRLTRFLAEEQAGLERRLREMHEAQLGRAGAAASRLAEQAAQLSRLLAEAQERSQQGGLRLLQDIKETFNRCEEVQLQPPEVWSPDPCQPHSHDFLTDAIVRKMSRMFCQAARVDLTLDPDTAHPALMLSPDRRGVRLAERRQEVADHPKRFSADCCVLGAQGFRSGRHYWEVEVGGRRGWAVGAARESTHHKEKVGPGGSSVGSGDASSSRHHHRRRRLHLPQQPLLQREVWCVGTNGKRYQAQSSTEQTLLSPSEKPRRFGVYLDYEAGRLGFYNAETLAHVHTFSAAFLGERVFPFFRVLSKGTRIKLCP
# Description: as §1
# [3] = biological target: T3, UniProt Q6AZZ1 (Homo sapiens, UniProt Q6AZZ1)
# T3 construct: 200 μL of lysate containing 5 mg/ml proteome was treated with 2 μL of 100× compound stock; endogenous in cells
# T3 sequence (Q6AZZ1 1-485): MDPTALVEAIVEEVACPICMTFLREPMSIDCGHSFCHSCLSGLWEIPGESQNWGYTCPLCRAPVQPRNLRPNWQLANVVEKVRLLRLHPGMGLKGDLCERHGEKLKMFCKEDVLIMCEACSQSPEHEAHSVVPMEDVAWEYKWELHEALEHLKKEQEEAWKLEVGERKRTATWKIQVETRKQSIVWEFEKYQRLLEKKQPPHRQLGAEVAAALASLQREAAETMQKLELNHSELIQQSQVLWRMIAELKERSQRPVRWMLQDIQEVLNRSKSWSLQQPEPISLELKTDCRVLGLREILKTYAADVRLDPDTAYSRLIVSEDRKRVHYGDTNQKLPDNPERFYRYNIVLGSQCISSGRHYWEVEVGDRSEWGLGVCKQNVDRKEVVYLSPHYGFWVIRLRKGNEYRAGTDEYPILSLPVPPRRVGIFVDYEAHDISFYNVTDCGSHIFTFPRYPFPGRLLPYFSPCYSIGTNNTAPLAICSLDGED
# Description: as §1
# [4] = biological target: T4, UniProt Q13064 (Homo sapiens, UniProt Q13064)
# T4 construct: Cells were resuspended in cold PBS on ice and sonicated with a probe sonicator to achieve lysis; endogenous in cells
# T4 sequence (Q13064 1-507): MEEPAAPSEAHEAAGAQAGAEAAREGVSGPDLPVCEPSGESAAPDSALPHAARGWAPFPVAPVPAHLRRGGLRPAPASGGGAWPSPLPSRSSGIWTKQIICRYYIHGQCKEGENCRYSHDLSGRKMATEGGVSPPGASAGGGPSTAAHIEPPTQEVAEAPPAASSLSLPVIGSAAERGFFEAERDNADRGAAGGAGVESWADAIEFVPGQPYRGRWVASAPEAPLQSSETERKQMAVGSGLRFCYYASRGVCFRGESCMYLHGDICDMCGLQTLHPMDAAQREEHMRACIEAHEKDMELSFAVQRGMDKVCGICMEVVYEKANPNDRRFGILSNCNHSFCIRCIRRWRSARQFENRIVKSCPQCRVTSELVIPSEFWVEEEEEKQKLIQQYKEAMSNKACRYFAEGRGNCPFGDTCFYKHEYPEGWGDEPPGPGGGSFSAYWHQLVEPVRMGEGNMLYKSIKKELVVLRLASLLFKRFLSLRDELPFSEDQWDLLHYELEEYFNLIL
# Description: as §1
# [5] = biological target: T5, UniProt Q6PJ21 (Homo sapiens, UniProt Q6PJ21); details: for inhibition at 100 µM / inhibition at 500 µM: read-out: percent_inhibition
# T5 construct: 200 μL of lysate containing 5 mg/ml proteome was treated with 2 μL of 100× compound stock; endogenous in cells
# T5 sequence (Q6PJ21 1-355): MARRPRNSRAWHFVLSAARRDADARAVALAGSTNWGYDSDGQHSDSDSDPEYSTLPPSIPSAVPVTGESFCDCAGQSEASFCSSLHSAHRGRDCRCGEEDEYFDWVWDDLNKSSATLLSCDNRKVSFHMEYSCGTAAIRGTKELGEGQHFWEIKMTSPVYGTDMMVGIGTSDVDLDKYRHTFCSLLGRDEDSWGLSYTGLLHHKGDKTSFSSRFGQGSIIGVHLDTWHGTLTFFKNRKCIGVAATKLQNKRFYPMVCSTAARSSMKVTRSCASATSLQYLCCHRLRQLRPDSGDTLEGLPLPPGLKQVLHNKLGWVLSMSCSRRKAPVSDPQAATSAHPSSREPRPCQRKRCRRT
# Description: as §1
# [6] = 500 uM, read-out: percent inhibition
# T1 sequence (Q9C035 whole entry, change not shown): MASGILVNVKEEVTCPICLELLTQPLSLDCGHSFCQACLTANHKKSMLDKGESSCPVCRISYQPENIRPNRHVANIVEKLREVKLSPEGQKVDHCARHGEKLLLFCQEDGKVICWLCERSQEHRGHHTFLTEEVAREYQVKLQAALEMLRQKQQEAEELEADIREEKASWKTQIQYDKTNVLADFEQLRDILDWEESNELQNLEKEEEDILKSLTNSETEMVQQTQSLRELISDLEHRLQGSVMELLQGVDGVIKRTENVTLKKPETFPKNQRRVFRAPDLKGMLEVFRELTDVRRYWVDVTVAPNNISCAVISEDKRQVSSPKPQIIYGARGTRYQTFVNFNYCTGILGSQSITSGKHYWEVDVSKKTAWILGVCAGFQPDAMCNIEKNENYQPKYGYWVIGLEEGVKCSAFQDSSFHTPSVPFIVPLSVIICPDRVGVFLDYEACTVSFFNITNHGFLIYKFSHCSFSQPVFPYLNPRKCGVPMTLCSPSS
Structure (SMILES),inhibition at 100 µM ([1]; read-out: KB02_100 uM_percent_inhibition),"inhibition at 100 µM ([2]; 100 uM, read-out: KB02_100 uM_percent_inhibition)",inhibition at 500 µM ([3]; read-out: KB02_500 uM_percent_inhibition),"inhibition at 100 µM ([4]; 100 uM, read-out: percent inhibition)","inhibition at 500 µM [4, 6]",inhibition at 100 µM ([5]; 100 uM),inhibition at 500 µM ([5]; 500 uM),inhibition at 100 µM ([1]; read-out: KB05_100 uM_percent_inhibition),"inhibition at 500 µM ([2]; 500 uM, read-out: KB05_500 uM_percent_inhibition)",inhibition at 500 µM ([3]; read-out: KB05_500 uM_percent_inhibition),KB03_100 uM_percent_inhibition ([1]; 100 uM),KB03_100 uM_percent_inhibition ([2]; 100 uM),KB03_500 uM_percent_inhibition ([3]; 500 uM),percent inhibition ([4]; 500 uM),percent_inhibition ([5]; 100 uM),percent_inhibition ([5]; 500 uM)
COc1ccc2c(c1)CCCN2C(=O)CCl [KB02],13%,15%,44%,2%,37%,5%,8%,–,–,–,–,–,–,–,–,–
C=CC(=O)N(c1ccccc1)c1ccc(Br)cc1 [KB05],–,–,–,–,23%,4%,30%,4%,50%,36%,–,–,–,–,–,–
O=C(CCl)Nc1cc(C(F)(F)F)cc(C(F)(F)F)c1 [KBO3],–,–,–,–,–,–,–,–,–,–,18%,31%,18%,16%,25%,52%

# Source: patent US20200239530A1, “COMPOUNDS AND METHODS OF MODULATING PROTEIN DEGRADATION” (Vividion Therapeutics, Inc., priority 2017, published 2020)
